Laboratory results published in ChEMBL document CHEMBL1165890, “Inside HDAC with HDAC inhibitors” (Eur J Med Chem, 2010).
One block for each compound: values may come before it. Non-standard residues stand in square brackets, D forms with d. Residues, ends and D or L forms follow the SMILES beside them. *: point of attachment. Ala(indol-2-yl) = N[C@@H](Cc1cc2ccccc2[nH]1)C(=O)O; Asu = N[C@@H](CCCCCC(=O)O)C(=O)O; β3hI = CC[C@H](C)[C@H](N)CC(=O)O; NHOH = ON*

Key:
Histone deacetylase = conditions: hela
Description: Inhibition of HDAC in human HeLa cells

Histone deacetylase 1 = Histone deacetylase 1 (Homo sapiens, UniProt Q13547); assay: Inhibition of recombinant HDAC1
Sequence of Histone deacetylase 1 (Q13547 whole entry): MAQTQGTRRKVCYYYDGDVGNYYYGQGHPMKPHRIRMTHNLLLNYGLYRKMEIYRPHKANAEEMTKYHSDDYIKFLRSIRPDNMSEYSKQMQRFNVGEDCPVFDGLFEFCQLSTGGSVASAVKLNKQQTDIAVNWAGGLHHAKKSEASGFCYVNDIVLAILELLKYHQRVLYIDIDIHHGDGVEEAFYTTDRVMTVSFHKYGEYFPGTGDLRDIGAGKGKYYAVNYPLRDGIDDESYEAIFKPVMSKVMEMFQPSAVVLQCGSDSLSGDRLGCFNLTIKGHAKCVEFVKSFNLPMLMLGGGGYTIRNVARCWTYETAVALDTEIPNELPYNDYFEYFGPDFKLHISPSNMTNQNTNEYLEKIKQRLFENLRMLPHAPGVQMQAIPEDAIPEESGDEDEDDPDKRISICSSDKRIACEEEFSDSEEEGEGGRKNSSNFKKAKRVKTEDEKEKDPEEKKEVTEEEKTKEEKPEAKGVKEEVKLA

Histone deacetylase 2 = Histone deacetylase 2 (Homo sapiens, UniProt Q92769); assay: Inhibition of recombinant HDAC2
Sequence of Histone deacetylase 2 (Q92769 whole entry): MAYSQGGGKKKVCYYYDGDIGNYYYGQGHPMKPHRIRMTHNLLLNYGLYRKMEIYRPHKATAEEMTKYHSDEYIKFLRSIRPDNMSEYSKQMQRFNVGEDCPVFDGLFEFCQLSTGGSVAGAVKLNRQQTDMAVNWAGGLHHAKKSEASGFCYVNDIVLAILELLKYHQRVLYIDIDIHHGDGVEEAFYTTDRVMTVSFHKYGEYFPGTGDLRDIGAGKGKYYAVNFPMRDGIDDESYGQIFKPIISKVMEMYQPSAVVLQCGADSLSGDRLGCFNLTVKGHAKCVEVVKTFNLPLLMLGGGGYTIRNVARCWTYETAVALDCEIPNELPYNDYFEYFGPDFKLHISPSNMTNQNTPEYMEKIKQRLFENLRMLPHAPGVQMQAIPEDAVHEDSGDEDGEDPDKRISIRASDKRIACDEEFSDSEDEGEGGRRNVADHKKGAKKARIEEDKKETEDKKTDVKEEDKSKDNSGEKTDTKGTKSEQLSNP

Histone deacetylase 3 = Histone deacetylase 3 (Homo sapiens, UniProt O15379); assay: Inhibition of recombinant HDAC3
Sequence of Histone deacetylase 3 (O15379 whole entry): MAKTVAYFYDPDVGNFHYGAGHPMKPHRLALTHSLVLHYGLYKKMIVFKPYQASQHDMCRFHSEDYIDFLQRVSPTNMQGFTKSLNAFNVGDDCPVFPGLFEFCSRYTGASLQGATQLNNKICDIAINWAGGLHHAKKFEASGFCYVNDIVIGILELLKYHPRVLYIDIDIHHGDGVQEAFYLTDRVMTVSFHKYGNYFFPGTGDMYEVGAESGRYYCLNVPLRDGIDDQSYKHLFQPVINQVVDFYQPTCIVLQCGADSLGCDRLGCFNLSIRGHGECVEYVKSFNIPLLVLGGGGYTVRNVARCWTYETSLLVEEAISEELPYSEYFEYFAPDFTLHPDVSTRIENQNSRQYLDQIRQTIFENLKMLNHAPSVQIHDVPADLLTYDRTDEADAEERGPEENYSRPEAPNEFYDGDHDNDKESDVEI

[1] = target: T1, Protein deacetylase HDAC6 (Homo sapiens, UniProt Q9UBN7); assay: Inhibition of recombinant HDAC6
T1 sequence (Q9UBN7 whole entry): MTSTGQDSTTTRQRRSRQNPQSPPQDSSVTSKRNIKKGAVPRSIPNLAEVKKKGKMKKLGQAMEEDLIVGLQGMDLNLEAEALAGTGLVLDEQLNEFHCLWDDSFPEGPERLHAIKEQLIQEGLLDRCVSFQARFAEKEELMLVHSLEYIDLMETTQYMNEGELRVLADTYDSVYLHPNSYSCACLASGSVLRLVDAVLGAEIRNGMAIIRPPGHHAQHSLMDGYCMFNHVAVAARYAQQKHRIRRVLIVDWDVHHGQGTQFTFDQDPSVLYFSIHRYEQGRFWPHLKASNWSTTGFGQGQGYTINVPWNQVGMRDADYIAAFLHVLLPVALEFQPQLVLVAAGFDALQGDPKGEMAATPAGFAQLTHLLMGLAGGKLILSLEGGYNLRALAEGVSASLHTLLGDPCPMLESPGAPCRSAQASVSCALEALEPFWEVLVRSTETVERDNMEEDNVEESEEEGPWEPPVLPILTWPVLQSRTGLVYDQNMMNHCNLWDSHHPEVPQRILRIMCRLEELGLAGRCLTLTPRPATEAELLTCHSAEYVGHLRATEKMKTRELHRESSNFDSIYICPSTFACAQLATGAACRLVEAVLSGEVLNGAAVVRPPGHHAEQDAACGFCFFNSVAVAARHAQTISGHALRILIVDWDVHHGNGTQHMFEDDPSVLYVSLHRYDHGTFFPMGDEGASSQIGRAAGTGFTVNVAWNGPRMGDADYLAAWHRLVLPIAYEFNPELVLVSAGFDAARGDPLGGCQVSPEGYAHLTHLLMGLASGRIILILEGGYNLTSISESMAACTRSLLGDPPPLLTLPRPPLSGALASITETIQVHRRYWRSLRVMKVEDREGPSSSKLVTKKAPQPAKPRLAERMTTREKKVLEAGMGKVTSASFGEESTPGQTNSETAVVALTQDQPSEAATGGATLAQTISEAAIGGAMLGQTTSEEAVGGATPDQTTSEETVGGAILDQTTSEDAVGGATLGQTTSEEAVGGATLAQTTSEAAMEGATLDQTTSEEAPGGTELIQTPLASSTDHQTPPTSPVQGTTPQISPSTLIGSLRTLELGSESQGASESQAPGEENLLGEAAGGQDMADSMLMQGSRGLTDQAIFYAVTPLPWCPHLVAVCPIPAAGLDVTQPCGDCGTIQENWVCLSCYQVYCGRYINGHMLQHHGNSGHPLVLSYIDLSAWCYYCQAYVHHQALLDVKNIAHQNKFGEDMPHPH

Histone deacetylase 8 = target: T2, Histone deacetylase 8 (Homo sapiens, UniProt Q9BY41); assay: Inhibition of recombinant HDAC8
T2 sequence (Q9BY41 whole entry): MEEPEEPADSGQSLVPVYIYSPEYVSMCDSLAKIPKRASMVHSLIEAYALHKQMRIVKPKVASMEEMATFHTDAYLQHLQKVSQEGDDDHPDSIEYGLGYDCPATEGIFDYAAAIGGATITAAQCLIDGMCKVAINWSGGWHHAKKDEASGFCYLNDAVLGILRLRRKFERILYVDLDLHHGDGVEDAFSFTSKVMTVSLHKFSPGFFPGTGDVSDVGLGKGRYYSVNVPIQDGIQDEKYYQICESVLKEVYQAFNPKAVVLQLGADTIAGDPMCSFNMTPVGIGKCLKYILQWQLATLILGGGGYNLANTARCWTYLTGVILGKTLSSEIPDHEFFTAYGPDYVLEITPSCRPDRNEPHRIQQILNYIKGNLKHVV

[2] = target: T3, Polyamine deacetylase HDAC10 (Homo sapiens, UniProt Q969S8); assay: Inhibition of HDAC10
T3 sequence (Q969S8 whole entry): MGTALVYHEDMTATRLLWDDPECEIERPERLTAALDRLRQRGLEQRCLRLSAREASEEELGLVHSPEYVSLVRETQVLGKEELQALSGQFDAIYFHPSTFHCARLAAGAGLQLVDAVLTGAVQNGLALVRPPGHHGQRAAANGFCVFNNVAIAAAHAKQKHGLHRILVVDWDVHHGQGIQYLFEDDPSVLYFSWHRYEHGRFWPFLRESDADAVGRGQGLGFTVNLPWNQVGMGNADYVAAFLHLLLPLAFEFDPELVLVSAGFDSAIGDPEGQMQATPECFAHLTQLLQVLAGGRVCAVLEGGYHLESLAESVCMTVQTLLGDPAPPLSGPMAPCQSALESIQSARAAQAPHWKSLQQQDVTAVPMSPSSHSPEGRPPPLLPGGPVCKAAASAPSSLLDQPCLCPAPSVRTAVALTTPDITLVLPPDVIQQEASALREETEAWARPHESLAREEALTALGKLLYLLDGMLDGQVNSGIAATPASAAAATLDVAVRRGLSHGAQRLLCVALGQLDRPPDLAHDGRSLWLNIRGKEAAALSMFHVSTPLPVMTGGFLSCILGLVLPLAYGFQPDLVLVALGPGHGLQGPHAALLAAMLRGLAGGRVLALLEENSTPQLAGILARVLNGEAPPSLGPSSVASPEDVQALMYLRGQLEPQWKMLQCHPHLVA

HCT-116 = assay: Antitumor activity against human HCT116 cells xenografted in mouse at 30 mg/kg; format: functional

SMILES: N=C/C=N/c1ccc(C(=O)Nc2cc(-c3cccs3)ccc2N)cc1
- IC50 (Histone deacetylase 1): 60 nM
- IC50 (Histone deacetylase 2): 20 nM
- IC50 (Histone deacetylase 3): > 20000 nM
- IC50 [1]: > 20000 nM
- IC50 (Histone deacetylase 8): > 20000 nM

SMILES: CCC(=O)CCCCC[C@@H]1NC(=O)[C@H](C)NC(=O)C[C@H]([C@@H](C)CC)NC(=O)[C@H](Cc2cc3ccccc3[nH]2)NC1=O
- IC50 (Histone deacetylase): 40 nM

SMILES: COc1ccc(C(=O)Nc2cc(-c3cccs3)ccc2N)cc1
- IC50 (Histone deacetylase 3): > 20000 nM
- IC50 [1]: > 20000 nM
- IC50 (Histone deacetylase 8): > 20000 nM

SMILES: CC(=O)Nc1ccc(C(=O)Nc2cc(-c3cccs3)ccc2N)cc1
- IC50 (Histone deacetylase 8): > 20000 nM

SMILES: Cn1c(/C=C/C(=O)NO)ccc1C(=O)c1ccccc1
- IC50 [2]: 280 nM

SMILES: Cn1cc(/C=C/C(=O)NO)cc1C(=O)c1ccccc1
- IC50 [2]: 50 nM

SMILES: CC[C@H](C)[C@H]1CC(=O)NCC(=O)N[C@@H](CCCCCC(N)=O)C(=O)N[C@@H](Cc2cc3ccccc3[nH]2)C(=O)N1 (cyclo([Asu](NH2)[Ala(indol-2-yl)][β3hI]G))
- IC50 (Histone deacetylase): 2700 nM

SMILES: CC(=O)Nc1ccc(C(=O)Nc2ccccc2N)cc1 [TACEDINALINE]
- inhibition in vivo at 30 mg/kg (HCT-116): 52%

Now from value to compound:

- IC50 (Histone deacetylase): 2000 nM
SMILES: CCC(=O)CCCCC[C@@H]1NC(=O)CNC(=O)C[C@H]([C@@H](C)CC)N(C)C(=O)[C@H](Cc2cc3ccccc3[nH]2)NC1=O

- IC50 (Histone deacetylase): 19 nM
SMILES: CCC(=O)CCCCC[C@@H]1NC(=O)CNC(=O)C[C@H]([C@@H](C)CC)NC(=O)[C@H](Cc2cc3ccccc3[nH]2)NC1=O

- IC50 (Histone deacetylase): > 10000 nM
SMILES: CCC(=O)CCCCC[C@@H]1NC(=O)CNC(=O)C[C@H]([C@@H](C)CC)NC(=O)[C@H](Cc2cc3ccccc3[nH]2)N(C)C1=O

- IC50 (Histone deacetylase): 900 nM
SMILES: O=C(CS)NCCCCCC(=O)Nc1cccc2cccnc12

- IC50 (Histone deacetylase): 900 nM
SMILES: O=C(CS)NCCCCCC(=O)Nc1ccc2ncccc2c1

- IC50 (Histone deacetylase): < 1 nM
SMILES: CC[C@H](C)[C@H]1CC(=O)NCC(=O)N[C@@H](CCCCCC(=O)NO)C(=O)N[C@@H](Cc2cc3ccccc3[nH]2)C(=O)N1 (cyclo([Asu](NHOH)[Ala(indol-2-yl)][β3hI]G))

- IC50 (Histone deacetylase): 300 nM
SMILES: CC[C@H](C)[C@H]1CC(=O)NCC(=O)N[C@@H](CCCCCC(=O)O)C(=O)N[C@@H](Cc2cc3ccccc3[nH]2)C(=O)N1 (cyclo([Asu][Ala(indol-2-yl)][β3hI]G))
